Measured values taken from PMC10352165, “Miniaturized method for the quantification of persistent organic pollutants and their metabolites in HepG2 cells: assessment of their biotransformation” (Analytical and Bioanalytical Chemistry, 2023).
Converted amounts (≈) assume the structure as drawn. Read-outs that look alike come from different tables or passages of the source.

Legend:
MTT cell viability assay = format: cell-based; details: human
Procedure: (§1) Cell viability was determined by MTT assay. First, 10,000 cells/well were cultured in 96-well plates for 24 h at 37 °C and 5% CO2. After that time, the culture medium was replaced with a culture medium containing different concentrations (0–70 mg·L^−1) of PHE and BDE-47 for 48 h of exposure under the same incubated conditions. After that, 20 μL MTT solution (5 mg·mL^−1 diluted in PBS) was added and incubated for the following 4 h. Viable cellular metabolic reduction of MTT produced formazan crystals, which were dissolved in 100 μL sterile DMSO and quantified with absorbance measurement at 595 nm in a Multiskan Sky High ([…] Thermo Fisher). The cell viability was estimated by using Eq. (1). 1 %Viability=Aexp-Ablank/Acontrol-Ablank∙100 where Acontrol, Aexp, and Ablank are the mean absorbance value (6 replicates) of the control group (cells without pollutant), experimental group, and blank group (only cell culture medium), respectively. Five independent assays were carried out with the same conditions. The results have been subsequently used for the design of the biotransformation experiment.
(§2) Cell viability of each concentration was estimated by using Eq. (1) according to the absorbance values obtained in the MTT assay. The dose–response values were fitted by Origin Pro 2021 with a polynomial equation (shown in Fig. 3) from which the LC value was estimated. LC50 (50% viability) and LC30 (70% viability) were estimated by the polynomial fitting of the mean cell viability data obtained from three independent experiments. Cell viability in HepG2 decreased by 30% at 22 mg·L^−1 PHE and 38 mg·L^−1 BDE-47 and up to 50% at 38 mg·L^−1 PHE and 46 mg·L^−1 BDE-47. […] The calculated LC30 values have been subsequently used for the design of the biotransformation experiments.

HepG2 cells [1] = experiment: MTT cell viability assay; format: cell-based
Procedure: as §1, §2

HepG2 cells [2] = experiment: Plastic and glass plate exposure test (loss and cell uptake of compound); format: in vitro ADME
Procedure: Exposure of HepG2 cells (3 replicates) was performed by initially seeding approximately 2·10^6 cells in glass P100 plates and being incubated for 24 h at 37 °C (5% CO2) with 10 mL of DMEM supplemented with 10% FBS. […] The nominal exposure concentration was estimated by the previous MTT viability study, in which, more than 70% of the cells were alive at the end of the test (lethal concentration 30, LC30) to ensure good metabolizing capacity. Part of the contaminated medium was stored to determine the concentration at time 0 of exposure (“t = 0 h”). In addition, to consider possible analyte loss, a plate of control cells without pollutant (“blank”) and a plate with contaminated medium without cells (“no cells”) were incubated under the same conditions. […] Since the determination of PHE is carried out by LC-FL and its metabolites by GC–MS, the cell pellet was divided in half for each analysis. For this purpose, the adherent cells were lifted in suspension by trypsinization, and the total volume of the homogenous cell suspension was divided in half. Then, the resulting cell pellet from each fraction was collected by centrifuging at 1500 rpm for 5 min and removing the medium. However, for the determination of BDE-47 and its metabolites, the complete pellet obtained is analyzed because a simultaneous extraction is performed for both analyses. The obtained pellet was dried under a gentle stream of nitrogen, weighed on a precision analytical balance (± 0.00001 g), and stored at − 4 °C until analysis. Three independent assays were carried out with the same conditions, each with 3 replicates (plates) of the same concentration.
A major problem in in vitro cell assays is the loss of compound during the exposure process to estimate the effective concentration available to the cell and to correctly assess the toxicity and metabolization kinetics of POPs, as most of them are hydrophobic and semi-volatile. Firstly, when concentration was determined in the exposure and no cells medium samples at the end of the test (48 h) using plastic Petri dishes, a loss of 89% and 84% compared to the t = 0 h sample was found in the cells and no cells sample respectively (Table 1). This loss, similar to that found in previous studies, is mainly explained by absorption into polystyrene, the main component of in vitro culture plates or evaporation processes because these compounds have a Henry law constant (KH) between 1 and 10 Pa·m^3·mol^−1 [11] (7.90 Pa·m^3·mol^−1 for PHE at 35 °C [13] and 3.78 Pa·m^3·mol^−1 for BDE-47 at 40 °C [40]). The remaining concentration in the medium that had not been lost by evaporation or absorbed into the cells was retained in the protein serum. […] A fraction dissolved in the medium accessible to the cells of 3.5% for anthracene (log Kow 4.5) was obtained introducing the conditions of this work into the chemical partitioning model developed by Fischer et al.. […] Therefore, it should be considered to avoid the use of plastic in tests that requires P100 plates with a very high surface area/volume ratio of the medium when studying neutral chemicals with a log Kow > 3, as is the case of PHE (log Kow 4.46 [39]) and BDE-47 (log Kow 6.81 [26]).
Using glass plates, a loss of 47% and 26% for cells and no cells samples, respectively, was found at the end of the assay (48 h) (Table 1), and the concentration absorbed by the cells increased from 4 ± 1 to 18 ± 3%. For BDE-47, a loss of only 14% because of volatilization and an absorbed concentration of 24 ± 2% resulted using a glass plate, as BDE-47 is less volatile and more hydrophobic than PHE, favoring cell uptake. Birch et al. calculated a cell-free fraction of 13% for PHE in HepG2 cells with 10% of FBS in the medium considering the evaporation losses using glass vials. […]

[3] = cited from earlier work
[4] = cited from earlier work; remark: listed apart in the source
HepG2 = details: cited from earlier work; for CC50: read-out: LC50 (the source's name)
HepG2 cells [5] = experiment: Biotransformation experiment in HepG2 (concentration in cells and exposure medium); details: for Concentration in medium, t = 0 h: contaminated medium at time 0, 20 mg·L^−1 BDE-47 nominal; for Concentration in medium, no cells: contaminated medium without cells, 20 mg·L^−1 BDE-47, 48 h; for Biotransformation ratio between metabolites and PHE, cells / Biotransformation ratio between metabolites and PHE, medium: HepG2, 15 mg·L^−1 PHE; for Biotransformation ratio between metabolites and BDE-47, cells / Biotransformation ratio between metabolites and BDE-47, medium: HepG2, 20 mg·L^−1 BDE-47, 48 h
HepG2 cells [6] = details: 15 mg·L^−1
[7] = parameters: method as in PMID 18318592; details: cited from earlier work
HepG2 cells [8] = system: HepG2 cells; parameters: method as in PMID 31426631; details: 10% FBS in medium, evaporation losses considered, glass vials; cited from earlier work
[9] = HepG2 exposed to 20 mg·L^−1 BDE-47, 48 h, parent compound
[10] = HepG2 exposed to 15 mg·L^−1 PHE, 48 h, metabolites
[11] = HepG2 exposed to 20 mg·L^−1 BDE-47, 48 h, metabolites

Brc1ccc(Oc2ccc(Br)cc2Br)c(Br)c1 [BDE-47, 2,2′,4,4′-tetrabromodiphenyl ether]
CC50 at 48 h (MTT cell viability assay; HepG2, 48 h of exposure, MTT, polynomial fitting, read-out: LC50 (50% viability)): 46 µg/mL (≈ 94.7 µM) | LC30 (70% viability; cell viability decreased by 30%) (HepG2 cells [1]; HepG2, 48 h of exposure, MTT, polynomial fitting): 38 µg/mL (≈ 78.2 µM) | loss because of volatilization (HepG2 cells [2]; glass plate): 14% | concentration absorbed by the cells (HepG2 cells [2]; glass plates, 48 h): 24 ± 2% | Henry law constant (KH) ([3]; at 40 °C): 3.78 Pa·m^3·mol^−1 | log Kow [4]: 6.81 | LC50 (HepG2; HepG2, BDE-47): 48.6 µg/mL (≈ 100 µM) | CC50 (HepG2; HepG2, BDE-47): 100 µM | Concentration in cells, samples (HepG2 cells [5]; [9]): 737000 ± 120000 ng/g | Concentration in medium, samples (HepG2 cells [5]; [9]): 13000 ± 2000 ng/mL | Concentration in medium, t = 0 h (HepG2 cells [5]): 16000 ± 1000 ng/mL | Concentration in medium, no cells (HepG2 cells [5]): 14000 ± 3000 ng/mL

Oc1ccc2ccc3ccccc3c2c1 [3-OH-PHE]
Biotransformation ratio between metabolites and PHE, cells (HepG2 cells [5]; 48 h): 0.04 | Biotransformation ratio between metabolites and PHE, medium (HepG2 cells [5]; 48 h): 0.13 | Concentration in cells, samples (n = 3) (HepG2 cells [5]; [10]): 195 ± 33 ng/g | Concentration in medium, samples (HepG2 cells [5]; [10]): 4.0 ± 0.7 ng/mL

c1ccc2cc3ccccc3cc2c1 [anthracene, reference compound]
log Kow ([4]; value used with the partitioning model): 4.5

COc1cc(Oc2ccc(Br)cc2Br)c(Br)cc1Br [5-MeO-BDE-47]
Biotransformation ratio between metabolites and BDE-47, cells (HepG2 cells [5]): 0.03 | Biotransformation ratio between metabolites and BDE-47, medium (HepG2 cells [5]): 0.01 | Concentration in cells, samples (HepG2 cells [5]; [11]): 0.12 ± 0.02 ng/g | Concentration in medium, samples (HepG2 cells [5]; [11]): 1.2 ± 0.9 ng/mL

Oc1ccc2c(ccc3ccccc32)c1 [2-OH-PHE]
Biotransformation ratio between metabolites and PHE, cells (HepG2 cells [5]; 48 h): 0.06 | Biotransformation ratio between metabolites and PHE, medium (HepG2 cells [5]; 48 h): 0.15 | Concentration in cells, samples (n = 3) (HepG2 cells [5]; [10]): 284 ± 92 ng/g | Concentration in medium, samples (HepG2 cells [5]; [10]): 5.2 ± 0.9 ng/mL

Oc1cccc2c1ccc1ccccc12 [1-OH-PHE]
Biotransformation ratio between metabolites and PHE, cells (HepG2 cells [5]; 48 h): 0.01 | Biotransformation ratio between metabolites and PHE, medium (HepG2 cells [5]; 48 h): 0.22 | Concentration in cells, samples (n = 3) (HepG2 cells [5]; [10]): 72 ± 27 ng/g | Concentration in medium, samples (HepG2 cells [5]; [10]): 7.7 ± 0.9 ng/mL

Oc1c(Br)ccc(Oc2ccc(Br)cc2Br)c1Br [3-OH-BDE-47]
Biotransformation ratio between metabolites and BDE-47, cells (HepG2 cells [5]): 0.01 | Biotransformation ratio between metabolites and BDE-47, medium (HepG2 cells [5]): 0.04 | Concentration in cells, samples (HepG2 cells [5]; [11]): 0.21 ± 0.10 ng/g | Concentration in medium, samples (HepG2 cells [5]; [11]): 4.3 ± 0.2 ng/mL

c1ccc2c(c1)ccc1ccccc12 [PHE, phenanthrene]
CC50 at 48 h (MTT cell viability assay): 38 µg/mL (≈ 213 µM) | LC30 (70% viability; cell viability decreased by 30%) (HepG2 cells [1]; human, 48 h): 22 µg/mL (≈ 123 µM) | Conc. PHE Glass plate exposure (HepG2 cells [2]; 0 h): 4370 ng/mL | Conc. PHE Plastic plate exposure (HepG2 cells [2]; 0 h): 5570 ng/mL | Conc. PHE Glass plate exposure (HepG2 cells [2]; 24 h): 3690 ng/mL | Conc. PHE Glass plate exposure (HepG2 cells [2]; 48 h): 3160 ng/mL | Conc. PHE Plastic plate exposure (HepG2 cells [2]; 48 h): 880 ng/mL | loss at the end of the assay (HepG2 cells [2]; 48 h): 26% | loss compared to the t = 0 h sample (HepG2 cells [2]; 48 h): 84% | concentration absorbed by the cells (HepG2 cells [2]; human, 48 h): 18 ± 3% | loss at the end of the assay (HepG2 cells [2]; human, 48 h): 47% | loss compared to the t = 0 h sample (HepG2 cells [2]; human, 48 h): 89% | taken up by the cells (HepG2 cells [2]; human, 48 h): 4 ± 1% | Concentration in medium, t = 0 h (HepG2 cells [6]; 0 h): 12000 ± 1000 ng/mL | Concentration in medium, no cells (HepG2 cells [6]; 48 h): 8000 ± 2000 ng/mL | Concentration in cells, samples (n = 3) (HepG2 cells [6]; human, 48 h): 521 ± 144 µg/g | Concentration in medium, samples (HepG2 cells [6]; human, 48 h): 5700 ± 700 ng/mL | Henry law constant (KH) ([3]; at 35 °C): 7.90 Pa·m^3·mol^−1 | log Kow [4]: 4.46 | LC50 (HepG2; HepG2 at 48 h of PHE exposure): 20.3 µg/mL (≈ 114 µM) | CC50 (HepG2; HepG2 at 48 h of PHE exposure): 114 µM | absorption when glass is used ([7]; glass): 2% | initial concentration absorbed on polystyrene ([7]; polystyrene): 94% | cell-free fraction (HepG2 cells [8]): 13%

Oc1cc(Br)ccc1Oc1ccc(Br)cc1Br [2’-OH-BDE-28]
Concentration in cells, samples (HepG2 cells [5]; [11]): 0.11 ± 0.09 ng/g | Concentration in medium, samples (HepG2 cells [5]; [11]): 3.2 ± 0.2 ng/mL

Oc1cccc2ccc3ccccc3c12 [4-OH-PHE]
Biotransformation ratio between metabolites and PHE, cells (HepG2 cells [5]; 48 h): 0.05 | Biotransformation ratio between metabolites and PHE, medium (HepG2 cells [5]; 48 h): 0.16 | Concentration in cells, samples (n = 3) (HepG2 cells [5]; [10]): 260 ± 85 ng/g | Concentration in medium, samples (HepG2 cells [5]; [10]): 5 ± 1 ng/mL

Brc1ccc(Oc2ccc(Br)cc2Br)cc1 [BDE-28]
Concentration in cells, samples (HepG2 cells [5]; [11]): 18 ± 5 ng/g | Concentration in medium, samples (HepG2 cells [5]; [11]): 577 ± 92 ng/mL | Concentration in medium, t = 0 h (HepG2 cells [5]; metabolites): 662 ± 18 ng/mL | Concentration in medium, no cells (HepG2 cells [5]; metabolites): 651 ± 36 ng/mL

COc1c(Br)ccc(Oc2ccc(Br)cc2Br)c1Br [3-MeO-BDE-47]
metabolite detection after exposure (in words) (HepG2 cells [5]; HepG2 exposed to 20 mg·L^−1 BDE-47, 48 h): No quantifiable amounts

Oc1cc(Oc2ccc(Br)cc2Br)c(Br)cc1Br [5-OH-BDE-47]
Biotransformation ratio between metabolites and BDE-47, cells (HepG2 cells [5]): 0.01 | Biotransformation ratio between metabolites and BDE-47, medium (HepG2 cells [5]): 0.06 | Concentration in cells, samples (HepG2 cells [5]; [11]): 0.27 ± 0.08 ng/g | Concentration in medium, samples (HepG2 cells [5]; [11]): 6.2 ± 0.5 ng/mL
